# Reference: ChEMBL document CHEMBL1140860, “Synthesis and evaluation of dihydroartemisinin and dihydroartemisitene acetal dimers showing anticancer and antiprotozoal activity” (Bioorg Med Chem, 2009)
# Tests used:
# HCT-15 = experiment: Growth inhibition of human HCT15 cells after 48 hrs by sulforhodamine B assay; format: functional; details: HCT-15, 48 h
# KM12 = experiment: Growth inhibition of human KM12 cells after 48 hrs by sulforhodamine B assay; format: functional; details: KM12, 48 h
# Malme-3M = experiment: Growth inhibition of human MALME-3M cells after 48 hrs by sulforhodamine B assay; format: functional
# OVCAR-8 = experiment: Growth inhibition of human OVCAR8 cells after 48 hrs by sulforhodamine B assay; format: functional; details: OVCAR-8, 48 h
# HOP-92 = experiment: Growth inhibition of human HOP92 cells after 48 hrs by sulforhodamine B assay; format: functional; details: HOP-92, 48 h
# SN12C = experiment: Growth inhibition of human SN12C cells after 48 hrs by sulforhodamine B assay; format: functional
# [1] = Selectivity index, ratio of TC50 for african green monkey (Cercopithecus aethiops) Vero cells to IC50 for chloroquine-resistant Plasmodium falciparum W2; format: toxicity, cell-based
# SK-OV-3 = experiment: Growth inhibition of human SKOV3 cells after 48 hrs by sulforhodamine B assay; format: functional; details: SK-OV-3, 48 h
# SF-295 = experiment: Growth inhibition of human SF295 cells after 48 hrs by sulforhodamine B assay; format: functional; details: SF-295, 48 h
# HCC 2998 = experiment: Growth inhibition of human HCC2998 cells after 48 hrs by sulforhodamine B assay; format: functional; details: HCC 2998, 48 h
# NCI-H226 = experiment: Growth inhibition of human NCI-H226 cells after 48 hrs by sulforhodamine B assay; format: functional; details: NCI-H226, 48 h
# MDA-MB-435 = experiment: Growth inhibition of human MDA-MB-435 cells after 48 hrs by sulforhodamine B assay; format: functional; details: MDA-MB-435, 48 h
# SW-620 = experiment: Growth inhibition of human SW620 cells after 48 hrs by sulforhodamine B assay; format: functional; details: SW-620, 48 h
# SNB-75 = experiment: Growth inhibition of human SNB75 cells after 48 hrs by sulforhodamine B assay; format: functional; details: SNB-75, 48 h
# BT-549 = experiment: Growth inhibition of human BT549 cells after 48 hrs by sulforhodamine B assay; format: functional; details: BT-549, 48 h
# CCRF-CEM = experiment: Growth inhibition of human CCRF-CEM cells after 48 hrs by sulforhodamine B assay; format: functional
# [2] = Growth inhibition of human […] cells after 48 hrs by sulforhodamine B assay; format: functional
# SK-MEL-28 = experiment: Growth inhibition of human SK-MEL-28 cells after 48 hrs by sulforhodamine B assay; format: functional; details: SK-MEL-28, 48 h
# SR = experiment: Growth inhibition of human SR cells after 48 hrs by sulforhodamine B assay; format: functional
# DU-145 = experiment: Growth inhibition of human DU145 cells after 48 hrs by sulforhodamine B assay; format: functional; details: DU-145, 48 h
# MCF7 = experiment: Growth inhibition of human MCF7 cells after 48 hrs by sulforhodamine B assay; format: functional; details: MCF7, 48 h
# PC-3 = experiment: Growth inhibition of human PC3 cells after 48 hrs by sulforhodamine B assay; format: functional; details: PC-3, 48 h
# 786-0 = experiment: Growth inhibition of human 786-0 cells after 48 hrs by sulforhodamine B assay; format: functional; details: 786-0, 48 h
# EKVX = experiment: Growth inhibition of human EKVX cells after 48 hrs by sulforhodamine B assay; format: functional
# A498 = experiment: Growth inhibition of human A498 cells after 48 hrs by sulforhodamine B assay; format: functional; details: A498, 48 h
# M14 = experiment: Growth inhibition of human M14 cells after 48 hrs by sulforhodamine B assay; format: functional; details: M14, 48 h
# SF-539 = experiment: Growth inhibition of human SF539 cells after 48 hrs by sulforhodamine B assay; format: functional; details: SF-539, 48 h
# CAKI-1 = experiment: Growth inhibition of human Caki1 cells after 48 hrs by sulforhodamine B assay; format: functional; details: CAKI-1, 48 h
# RXF 393 = experiment: Growth inhibition of human RXF393 cells after 48 hrs by sulforhodamine B assay; format: functional; details: RXF 393, 48 h
# SNB-19 = experiment: Growth inhibition of human SNB19 cells after 48 hrs by sulforhodamine B assay; format: functional; details: SNB-19, 48 h
# MDA-MB-231 = experiment: Growth inhibition of human MDA-MB-231 cells after 48 hrs by sulforhodamine B assay; format: functional; details: MDA-MB-231, 48 h
# NCI-H460 = experiment: Growth inhibition of human NCI-H460 cells after 48 hrs by sulforhodamine B assay; format: functional; details: NCI-H460, 48 h
# HT-29 = experiment: Growth inhibition of human HT-29 cells after 48 hrs by sulforhodamine B assay; format: functional; details: HT-29, 48 h
# Plasmodium falciparum [3] = experiment: Antimalarial activity after 72 hrs against chloroquine-resistant Plasmodium falciparum W2 infected erythrocytes by LDH assay; format: functional, organism-based; details: W2, 72 h
# Plasmodium falciparum [4] = experiment: Antimalarial activity after 72 hrs against chloroquine-sensitive Plasmodium falciparum D6 infected in erythrocytes by LDH assay; format: functional, organism-based; details: D6, 72 h
# SF-268 = experiment: Growth inhibition of human SF268 cells after 48 hrs by sulforhodamine B assay; format: functional; details: SF-268, 48 h
# OVCAR-4 = experiment: Growth inhibition of human OVCAR4 cells after 48 hrs by sulforhodamine B assay; format: functional; details: OVCAR-4, 48 h
# COLO 205 = experiment: Growth inhibition of human COLO205 cells after 48 hrs by sulforhodamine B assay; format: functional; details: COLO 205, 48 h
# NCI-H322M = experiment: Growth inhibition of human NCI-H322M cells after 48 hrs by sulforhodamine B assay; format: functional
# NCI-H23 = experiment: Growth inhibition of human NCI-H23 cells after 48 hrs by sulforhodamine B assay; format: functional; details: NCI-H23, 48 h
# MOLT-4 = experiment: Growth inhibition of human MOLT4 cells after 48 hrs by sulforhodamine B assay; format: functional; details: MOLT-4, 48 h
# U-251 = experiment: Growth inhibition of human U251 cells after 48 hrs by sulforhodamine B assay; format: functional; details: U-251, 48 h
# K562 = experiment: Growth inhibition of human K562 cells after 48 hrs by sulforhodamine B assay; format: functional; details: K562, 48 h
# MDA-N = experiment: Growth inhibition of human MDA-N cells after 48 hrs by sulforhodamine B assay; format: functional
# NCI-H522 = experiment: Growth inhibition of human NCI-H522 cells after 48 hrs by sulforhodamine B assay; format: functional; details: NCI-H522, 48 h
# A549 = experiment: Growth inhibition of human A549 cells after 48 hrs by sulforhodamine B assay; format: functional; details: A549, 48 h
# IGROV-1 = experiment: Growth inhibition of human IGROV1 cells after 48 hrs by sulforhodamine B assay; format: functional; details: IGROV-1, 48 h
# LOX IMVI = experiment: Growth inhibition of human LOXIMVI cells after 48 hrs by sulforhodamine B assay; format: functional
# ACHN = experiment: Growth inhibition of human ACHN cells after 48 hrs by sulforhodamine B assay; format: functional
# OVCAR-3 = experiment: Growth inhibition of human OVCAR-3 cells after 48 hrs by sulforhodamine B assay; format: functional; details: OVCAR-3, 48 h
# HOP-62 = experiment: Growth inhibition of human HOP62 cells after 48 hrs by sulforhodamine B assay; format: functional; details: HOP-62, 48 h
# T47D = experiment: Growth inhibition of human T47D cells after 48 hrs by sulforhodamine B assay; format: functional
# UACC-62 = experiment: Growth inhibition of human UACC62 cells after 48 hrs by sulforhodamine B assay; format: functional; details: UACC-62, 48 h
# TK-10 = experiment: Growth inhibition of human TK10 cells after 48 hrs by sulforhodamine B assay; format: functional; details: TK-10, 48 h
# HCT-116 = experiment: Growth inhibition of human HCT116 cells after 48 hrs by sulforhodamine B assay; format: functional; details: HCT-116, 48 h
# SK-MEL-5 = experiment: Growth inhibition of human SK-MEL-5 cells after 48 hrs by sulforhodamine B assay; format: functional; details: SK-MEL-5, 48 h
# SK-MEL-2 = experiment: Growth inhibition of human SK-MEL-2 cells after 48 hrs by sulforhodamine B assay; format: functional; details: SK-MEL-2, 48 h
# [5] = Selectivity index, ratio of TC50 for african green monkey (Cercopithecus aethiops) Vero cells to IC50 for chloroquine-sensitive Plasmodium falciparum D6; format: toxicity, cell-based
# NCI/ADR-RES = experiment: Growth inhibition of human NCI/ADR-RES cells after 48 hrs by sulforhodamine B assay; format: functional
# UACC-257 = experiment: Growth inhibition of human UACC257 cells after 48 hrs by sulforhodamine B assay; format: functional; details: UACC-257, 48 h
# OVCAR-5 = experiment: Growth inhibition of human OVCAR5 cells after 48 hrs by sulforhodamine B assay; format: functional; details: OVCAR-5, 48 h
# [6] = Cytotoxicity against african green monkey Vero cells after 48 hrs by neutral red assay; format: cell-based; details: chlorocebus sabaeus, read-out: TC50
# [7] = Growth inhibition of human Hs 578T cells after 48 hrs by sulforhodamine B assay; format: functional
compound,measurement,setting,value
C[C@H]1[C@@H](OCCCO[C@H]2O[C@@H]3O[C@@]4(C)CC[C@H]5[C@H](C)CC[C@@H]([C@H]2C)[C@@]35OO4)O[C@@H]2O[C@@]3(C)CC[C@H]4[C@H](C)CC[C@@H]1[C@@]24OO3,GI50,HCT-15,403 nM
same,GI50,KM12,517 nM
same,GI50,Malme-3M,> 100 µM
same,GI50,OVCAR-8,> 100 µM
same,GI50,HOP-92,> 100 µM
same,GI50,SN12C,4.03 µM
same,selectivity ratio,[1],35
same,GI50,SK-OV-3,> 100 µM
same,GI50,SF-295,> 100 µM
same,GI50,HCC 2998,9.65 µM
same,GI50,NCI-H226,> 100 µM
same,GI50,MDA-MB-435,694 nM
same,GI50,SW-620,522 nM
same,GI50,SNB-75,> 100 µM
same,GI50,BT-549,2790 nM
same,GI50,CCRF-CEM,1310 nM
same,GI50,[2],4.45 µM
same,GI50,SK-MEL-28,> 100 µM
same,GI50,SR,1980 nM
same,GI50,DU-145,100 µM
same,GI50,MCF7,652 nM
same,GI50,PC-3,3.08 µM
same,GI50,786-0,1410 nM
same,GI50,EKVX,5.49 µM
same,GI50,A498,14.7 µM
same,GI50,M14,> 100 µM
same,GI50,SF-539,> 100 µM
same,GI50,CAKI-1,6.95 µM
same,GI50,RXF 393,8 µM
same,GI50,SNB-19,> 100 µM
same,GI50,MDA-MB-231,7.34 µM
same,GI50,NCI-H460,31.2 µM
same,GI50,HT-29,522 nM
same,IC50,Plasmodium falciparum [3],8.5 µM
same,IC50,Plasmodium falciparum [4],14 µM
same,GI50,SF-268,> 100 µM
same,GI50,OVCAR-4,> 100 µM
same,GI50,COLO 205,450 nM
same,GI50,NCI-H322M,> 100 µM
same,GI50,NCI-H23,> 100 µM
same,GI50,MOLT-4,5.95 µM
same,GI50,U-251,> 100 µM
same,GI50,K562,> 100 µM
same,GI50,MDA-N,1580 nM
same,GI50,NCI-H522,7.13 µM
same,GI50,A549,28.7 µM
same,GI50,IGROV-1,7.68 µM
same,GI50,LOX IMVI,> 100 µM
same,GI50,ACHN,1470 nM
same,GI50,OVCAR-3,> 100 µM
same,GI50,HOP-62,> 100 µM
same,GI50,T47D,497 nM
same,GI50,UACC-62,17.9 µM
same,GI50,TK-10,2410 nM
same,GI50,HCT-116,545 nM
same,GI50,SK-MEL-5,30.5 µM
same,GI50,SK-MEL-2,> 100 µM
same,selectivity ratio,[5],> 21
same,GI50,NCI/ADR-RES,3.64 µM
same,GI50,UACC-257,> 100 µM
same,GI50,OVCAR-5,> 100 µM
same,CC50 at 48 h,[6],296 µM
same,GI50,[7],620 nM
